Measured values published in PubChem BioAssay AID330 (DTP/NCI, 2004).
Several values for one entry are separate records, joined by “and”; a condition that tells them apart may be missing. Equal values may be shown once. Inconclusive results and toxic doses are left out. How the source made its calls: active means survival T/C of 150% or more; inactive means T/C below 125% in these data.

Test system: P388 leukemia ip, CD2F1 mice, survival T/C
Experiment: NCI In Vivo Anticancer Drug Screen. Data for tumor model P388 Leukemia (intraperitoneal) in CD2F1 (CDF1) mice
Conditions: endpoint: median survival time, higher = longer survival
Summary of the method: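 Mice carrying the transplanted tumor received test compound or vehicle. Survival was recorded in each group, and the value is the treated-group measurement divided by that of the vehicle-treated control group.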

[1] = dose: 60.0 mg/kg/injection, schedule: Q01DX005 (ip), vehicle: saline with Tween-80
[2] = dose: 120.0 mg/kg/injection, schedule: Q01DX005 (ip), vehicle: saline with Tween-80
[3] = dose: 240.0 mg/kg/injection, schedule: Q01DX005 (ip), vehicle: saline with Tween-80
[4] = dose: 50.0 mg/kg/injection, schedule: Q01DX005 (ip), vehicle: saline with Tween-80
[5] = dose: 100.0 mg/kg/injection, schedule: Q01DX005 (ip), vehicle: saline with Tween-80
[6] = dose: 200.0 mg/kg/injection, schedule: Q01DX005 (ip), vehicle: saline with Tween-80
[7] = dose: 3.12 mg/kg/injection, schedule: Q01DX009 (ip), vehicle: saline with Tween-80
[8] = dose: 6.25 mg/kg/injection, schedule: Q01DX009 (ip), vehicle: saline with Tween-80
[9] = dose: 12.5 mg/kg/injection, schedule: Q01DX009 (ip), vehicle: saline with Tween-80
[10] = dose: 50.0 mg/kg/injection, schedule: Q01DX005 (ip), vehicle: Klucel (hydroxypropylcellulose) (HPC)
[11] = dose: 100.0 mg/kg/injection, schedule: Q01DX005 (ip), vehicle: Klucel (hydroxypropylcellulose) (HPC)
[12] = dose: 200.0 mg/kg/injection, schedule: Q01DX005 (ip), vehicle: Klucel (hydroxypropylcellulose) (HPC)
[13] = dose: 100.0 mg/kg/injection, schedule: Q01DX009 (ip), vehicle: water

Measured: T/C

COc1cc(C2c3cc4c(cc3C3OC(=O)C2C3CO)OCO4)cc(OC)c1OC (configuration not stated)
inactive: dose: 0.12 mg/kg/injection, schedule: Q01DX009 (ip), vehicle: Klucel (hydroxypropylcellulose) (HPC) 117 % of control | dose: 0.25 mg/kg/injection, schedule: Q01DX009 (ip), vehicle: Klucel (hydroxypropylcellulose) (HPC) 115 % of control | dose: 0.5 mg/kg/injection, schedule: Q01DX009 (ip), vehicle: Klucel (hydroxypropylcellulose) (HPC) 120 % of control | dose: 3.12 mg/kg/injection, schedule: Q01DX009 (ip), vehicle: Klucel (hydroxypropylcellulose) (HPC) 118 % of control | dose: 6.25 mg/kg/injection, schedule: Q01DX009 (ip), vehicle: Klucel (hydroxypropylcellulose) (HPC) 118 % of control

CC1(C)OC(C(F)(F)F)(C(F)(F)F)c2cc(C(C)(C)C)ccc2S1
inactive: [1] 98 % of control | [2] 98 % of control | [3] 102 % of control

CCCCN1CCN(c2ccc([N+](=O)[O-])c3no[n+]([O-])c23)CC1
inactive: dose: 8.0 mg/kg/injection, schedule: Q04DX003 (ip), vehicle: suspension in saline 102 % of control | dose: 16.0 mg/kg/injection, schedule: Q04DX003 (ip), vehicle: suspension in saline 99 % of control | dose: 32.0 mg/kg/injection, schedule: Q04DX003 (ip), vehicle: suspension in saline 108 % of control

COC(=O)C1c2cc3c(c(O)c2C(OC2OC(C)C(OC)C(C)(OC)C2OC)CC1(C)O)C(=O)c1c(O)cc2c(c1C3=O)OC1OC2(C)C(O)C(N(C)C=O)C1O (configuration not stated)
inactive: dose: 1.56 mg/kg/injection, schedule: Q04DX003 (ip), vehicle: other 100 % of control | dose: 3.12 mg/kg/injection, schedule: Q04DX003 (ip), vehicle: other 96 % of control | dose: 6.25 mg/kg/injection, schedule: Q04DX003 (ip), vehicle: other 100 % of control | dose: 12.5 mg/kg/injection, schedule: Q04DX003 (ip), vehicle: other 110 % of control | dose: 25.0 mg/kg/injection, schedule: Q04DX003 (ip), vehicle: other 112 % of control

CC1=C(c2ccccc2)OS(=O)(=O)CC1N(C)C (configuration not stated)
inactive: [4] 99 % of control | [5] 99 % of control | [6] 98 % of control

CC1([N+](=O)[O-])C(=O)C2(N3CCCCC3)CCCC2C1c1ccccc1 (configuration not stated)
inactive: dose: 60.0 mg/kg/injection, schedule: Q01DX005 (ip), vehicle: Klucel (hydroxypropylcellulose) (HPC) 99 % of control | dose: 120.0 mg/kg/injection, schedule: Q01DX005 (ip), vehicle: Klucel (hydroxypropylcellulose) (HPC) 96 % of control | dose: 240.0 mg/kg/injection, schedule: Q01DX005 (ip), vehicle: Klucel (hydroxypropylcellulose) (HPC) 97 % of control

CC(C)[c-]1[c-][c-][c-][c-]1.CC(C)[c-]1[c-][c-][c-][c-]1.[Cl][Zr][Cl]
inactive: [7] 112 % of control | [8] 119 % of control | [9] 117 % of control

CSN(C)C(=O)Nc1cc(Cl)ccc1Cl
inactive: dose: 100.0 mg/kg/injection, schedule: Q04DX003 (ip), vehicle: saline 107 % of control | dose: 200.0 mg/kg/injection, schedule: Q04DX003 (ip), vehicle: saline 92 % of control | dose: 400.0 mg/kg/injection, schedule: Q04DX003 (ip), vehicle: saline 92 % of control

COc1ccc2c(c1)CN(CCc1ccccc1)CO2
inactive: [4] 101 % of control | [5] 101 % of control | [6] 97 % of control

O=C(O)Cc1noc2ccccc12
inactive: dose: 25.0 mg/kg/injection, schedule: Q04DX003 (ip), vehicle: Klucel (hydroxypropylcellulose) (HPC) 92 % of control | dose: 50.0 mg/kg/injection, schedule: Q04DX003 (ip), vehicle: Klucel (hydroxypropylcellulose) (HPC) 91 % of control | dose: 100.0 mg/kg/injection, schedule: Q04DX003 (ip), vehicle: Klucel (hydroxypropylcellulose) (HPC) 91 % of control | dose: 200.0 mg/kg/injection, schedule: Q04DX003 (ip), vehicle: Klucel (hydroxypropylcellulose) (HPC) 90 % of control

[N-]=[N+]=Nc1ccc(C(=O)ON2C(=O)CCC2=O)cc1
inactive: [4] 97 % of control | [5] 105 % of control | [6] 119 % of control

COC(=O)c1ccc(OP(=O)(N(C)C)N(C)C)cc1
inactive: [7] 98 % of control and 97 % of control | [8] 96 % of control | [9] 104 % of control and 96 % of control

Cc1cc(C)c(C#N)c(SCC(=O)c2sc3c(C#N)c(C)cc(C)[n+]3c2[O-])n1
inactive: [4] 90 % of control | [5] 90 % of control | [6] 95 % of control

COc1cc(NS(C)(=O)=O)ccc1Nc1c2ccc(Cl)cc2nc2c(OC)cccc12
active: dose: 3.13 mg/kg/injection, schedule: Q01DX009 (ip), vehicle: saline 166 % of control | dose: 6.25 mg/kg/injection, schedule: Q01DX009 (ip), vehicle: saline 195 % of control | dose: 6.25 mg/kg/injection, schedule: Q04DX003 (ip), vehicle: saline with Tween-80 154 % of control | dose: 8.25 mg/kg/injection, schedule: Q04DX003 (ip), vehicle: saline with Tween-80 179 % of control | dose: 12.5 mg/kg/injection, schedule: Q01DX009 (ip), vehicle: saline 208 % of control | dose: 12.5 mg/kg/injection, schedule: Q04DX003 (ip), vehicle: saline with Tween-80 170 % of control and 204 % of control | dose: 18.75 mg/kg/injection, schedule: Q04DX003 (ip), vehicle: saline with Tween-80 229 % of control

COc1ccccc1C1c2cc3c(cc2OC(C)(O)C1C)OCO3 (configuration not stated)
inactive: [4] 100 % of control | [5] 97 % of control | [6] 96 % of control

C[C@]12C=CC(=O)C=C1CC[C@@H]1[C@@H]2C(=O)C[C@@]2(C)[C@H]1CC[C@]2(O)C(=O)COC(=O)CSc1c2ccccc2nc2ccccc12
inactive: dose: 12.5 mg/kg/injection, schedule: Q01DX005 (ip), vehicle: Klucel (hydroxypropylcellulose) (HPC) 103 % of control | dose: 25.0 mg/kg/injection, schedule: Q01DX005 (ip), vehicle: Klucel (hydroxypropylcellulose) (HPC) 100 % of control | [10] 104 % of control and 107 % of control | [11] 107 % of control | [12] 102 % of control

CCOC(=O)NC1CC2c3ccccc3C1c1ccccc12 (configuration not stated)
inactive: [1] 101 % of control | [2] 101 % of control | [3] 107 % of control

COC(=O)C(Cc1ccccc1)NC(=O)C(Cc1cnc[nH]1)N(C(=O)OCc1ccccc1)C(=O)OCc1ccccc1 (configuration not stated)
inactive: dose: 25.0 mg/kg/injection, schedule: Q01DX005 (ip), vehicle: saline with Tween-80 88 % of control | [4] 91 % of control | [5] 87 % of control | [6] 89 % of control

NCCS(=O)(=O)O
inactive: [13] 90 % of control | dose: 200.0 mg/kg/injection, schedule: Q01DX009 (ip), vehicle: water 86 % of control | dose: 400.0 mg/kg/injection, schedule: Q01DX009 (ip), vehicle: water 86 % of control | dose: 800.0 mg/kg/injection, schedule: Q01DX009 (ip), vehicle: water 90 % of control

CCCCCCCCCCCCCCCC1=NCCN1
inactive: [4] 105 % of control | [5] 107 % of control

CC(C)CC(=O)N(CCC#N)c1ncc([N+](=O)[O-])s1
inactive: dose: 100.0 mg/kg/injection, schedule: Q01DX001 (ip), vehicle: Klucel (hydroxypropylcellulose) (HPC) 110 % of control | dose: 200.0 mg/kg/injection, schedule: Q01DX001 (ip), vehicle: Klucel (hydroxypropylcellulose) (HPC) 98 % of control

COc1nc(N2CCNCC2)nc2c1CCCC2
inactive: dose: 60.0 mg/kg/injection, schedule: Q01DX005 (ip), vehicle: saline 93 % of control | dose: 120.0 mg/kg/injection, schedule: Q01DX005 (ip), vehicle: saline 103 % of control

CC(=O)C(C)S(=O)(=O)O (configuration not stated)
inactive: dose: 100.0 mg/kg/injection, schedule: Q01DX001 (ip), vehicle: saline 106 % of control | dose: 200.0 mg/kg/injection, schedule: Q01DX001 (ip), vehicle: saline 106 % of control | dose: 400.0 mg/kg/injection, schedule: Q01DX001 (ip), vehicle: saline 106 % of control

NC(=O)c1nsc(-c2ccc([N+](=O)[O-])cc2)c1N
inactive: [10] 101 % of control | [11] 96 % of control | [12] 92 % of control

CC(/C=N/N=C1\C(=O)Nc2ccccc21)=C\c1ccccc1
inactive: dose: 50.0 mg/kg/injection, schedule: Q01DX009 (ip), vehicle: Klucel (hydroxypropylcellulose) (HPC) 95 % of control | dose: 100.0 mg/kg/injection, schedule: Q01DX009 (ip), vehicle: Klucel (hydroxypropylcellulose) (HPC) 94 % of control | dose: 200.0 mg/kg/injection, schedule: Q01DX009 (ip), vehicle: Klucel (hydroxypropylcellulose) (HPC) 100 % of control

O=C(CO)N(O)c1ccc(Cl)cc1
inactive: dose: 50.0 mg/kg/injection, schedule: Q01DX009 (ip), vehicle: water 109 % of control | [13] 101 % of control
